In patent US4505932A, “Method of producing α2 -adrenergic receptor agonist activity” (Abbott Laboratories, priority 1984, dated 1985):
Structures can show the parent of a compound that is named as a salt.

Tests used:
[1] = biological target: T1, α1 -adrenergic receptors (Rattus norvegicus, UniProt P15823); assay: radioligand binding, [3H] prazosin displacement in rat liver; details: read-out: KIα1 (dissociation constant)
T1 construct: from tissue; host or cells: rat liver
T1 sequence (P15823 1-515): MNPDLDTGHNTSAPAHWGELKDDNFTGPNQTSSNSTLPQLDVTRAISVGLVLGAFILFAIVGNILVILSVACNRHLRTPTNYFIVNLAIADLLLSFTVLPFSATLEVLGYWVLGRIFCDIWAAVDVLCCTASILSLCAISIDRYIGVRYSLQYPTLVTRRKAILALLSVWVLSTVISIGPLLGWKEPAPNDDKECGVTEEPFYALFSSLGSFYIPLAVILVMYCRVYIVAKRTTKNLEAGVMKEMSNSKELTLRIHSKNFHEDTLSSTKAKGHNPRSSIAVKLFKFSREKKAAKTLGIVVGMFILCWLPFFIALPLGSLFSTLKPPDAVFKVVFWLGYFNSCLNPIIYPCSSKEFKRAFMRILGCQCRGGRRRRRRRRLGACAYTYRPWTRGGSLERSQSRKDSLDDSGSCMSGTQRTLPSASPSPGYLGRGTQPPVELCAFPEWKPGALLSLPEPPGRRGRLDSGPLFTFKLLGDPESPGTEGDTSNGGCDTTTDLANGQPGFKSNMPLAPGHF

[2] = biological target: α2 -adrenergic receptors; format: binding, rat; details: for Ki: rat brain cortex, [3H] rauwolscine, read-out: KIα2 (dissociation constant); for KIα1/KIα2: selectivity ratio, rat liver α1 vs rat brain cortex α2
[3] = system: α-adrenergic receptor; assay: isolated rabbit aorta contraction, α-adrenergic receptor agonist activity; format: cell-based; details: isolated rabbit aorta strip
Experimental: Female rabbits, weighing 2 to 5 kg., are sacrificed by cervical dislocation. The thoracic cavity is immediately opened and the descending aorta is removed and placed in a petrie dish containing an aqueous buffer solution (Krebs buffer) of 119 mM NaCl, 25 mM […], 4.7 mM KCl, 1.5 mM MgSO4, 1.2 mM KH2 PO4, 2.5 mM CaCl2, 11 mM glucose, 0.03 mM EDTA and 0.005 mM sodium ascorbate, adjusted to a pH of 7.4. The buffer solution is continuously aerated with a mixture of 95% O2 and 5% CO2 gases. The aorta is placed on cylindrical sticks and cleaned of excess fat and connective tissue, then cut into 2 tissue segments approximately 20 mm in length. Each segment of aorta is then spiraled in strips 3.5 mm wide by turning the stick as a scapel is applied, while leaving a section of 2-3 mm at each end of the aorta section intact. The spiraled tissue is mounted in an aerated (as above) tissue bath of 10 ml. of Kreb's buffer and is attached to a Grass force transducer with an initial applied tension of 2 grams. The tissue is allowed to equilibrate in the tissue bath at a temperature of 37°±0.5° C. until the tension on the force transducer stabilizes at 2 grams.
The tissue is washed with Krebs buffer until it relaxes to baseline tension.

[4] = system: spontaneously hypertensive rat; assay: arterial blood pressure and heart rate in the spontaneously hypertensive rat (tail cuff); format: in vivo
Experimental: Two groups of Okamoto rats, which develop hypertension spontaneously when reaching young adulthood, are deprived of food for a period of 16 hours and are placed in semirestraining wire mesh cylinders maintained at a constant temperature of 36° C. An occluding cuff, operatively connected to a programmed sphygmomanometer, is placed over the tail of each rat of the group and retained near the tail base. […] A photocell is placed distal to the cuff to detect pulses resulting from the forward motion of blood flow with each heartbeat of the rat. As the pressure in the cuff increases, measurable pulses disappear at the point where the cuff pressure equals the arterial blood pressure. Measurable pluses reappear during deflation at approximately the same pressure, and arterial blood pressure is thereby established by cuff pressure at the point of pulse appearance. The heart rate is determined from the arterial pulse wave. Doses of 30 or 100 mg./kg. of the preferred compound of Example 6 were administered orally to each rat of the test groups and five interference-free signals were recorded on a Model 7 Grass polygraph for each rat at various measurement periods following administration.

| SMILES | Ki [1] [µM] | Ki [2] [µM] | KIα1/KIα2 [2] | agonist character (intrinsic activity vs norepinephrine; >75% = full agonist) [3] | EC50 ([3]; contraction, read-out: ED50 (concentration producing half maximum response) in aorta strip) [µM] | arterial blood pressure ([4]; 30 or 100 mg./kg. orally, Okamoto rats) | heart rate ([4]; spontaneously hypertensive rat, oral) |
| --- | --- | --- | --- | --- | --- | --- | --- |
| NCC1CCc2c1ccc(O)c2O (stereo not drawn) [B] | 8.62 | 0.015 | 575 | – | – | – | – |
| Clc1cccc(Cl)c1N=C1NCCN1 [Clonidine, clonidine, reference compound] | – | 0.034 | – | – | – | – | – |
| CNC[C@H](O)c1ccc(O)c(O)c1 [Epinephrine, epinephrine, reference compound] | – | 0.053 | – | – | – | – | – |
| CN(C)CC1CCc2c1ccc(O)c2O (stereo not drawn) [Example 6, 1-N,N-Dimethylaminomethyl-4,5-dihydroxy indane hydrobromide] | 6.9 | 0.025 | 276 | full agonist | 1.6 | decrease the arterial blood pressure | decrease |
| CNCC1CCc2c1ccc(O)c2O (stereo not drawn) [Example 10, 1-N-Methylaminomethyl-4,5-dihydroxy indane hydrobromide] | 1.69 | 0.006 | 282 | – | – | – | – |
